# Measurements as given in patent US5145844A, “Methods of using hydroxy-, alkoxy- and benzyloxy-substituted phospholipids to treat phospholipase A2 -mediated conditions and to alleviate pain” (Hoechst-Roussel Pharmaceuticals Incorporated, priority 1991, dated 1992).
# Structures can show the parent of a compound that is named as a salt.
# Tested on: phenyl-para-quinone induced writhing
# Assay: phenyl-para-quinone writhing assay in mice (Analgesic PQW)
# Format: in vivo
# Conditions: 20 mg/kg, s.c.
# Description: The compounds of the present invention are also useful as analgesic agents due to their ability to alleviate pain in mammals. […] Exptl. Biol. Med., 95, 729 (1957)]. Presented in Table 2 is the analgesic effect of some of the compounds of the invention expressed as either the subcutaneous dose at which 50% of the phenyl-para-quinone induced writhing is inhibited in the animals, i.e., the ED50 value, or at the % decrease in writhing at a give dose.
row,Structure (SMILES),Analgesic PQW % Inhibition of Writhing
1,"C[N+](C)(C)CCOP(=O)([O-])OCCCC(O)CCCCCCCCCOc1ccccc1 (stereo not shown) [4,9-Dihydroxy-N,N,N-trimethyl-3,5-dioxa-18-phenoxy-4-phosphaoctadecan-1-aminium, 4-oxide, hydroxide, inner salt dihydrate]",48%
2,"CCCCCCCCCCCCCCCC(O)CCCOP(=O)([O-])OCC[N+]1(C)CCCC1 (stereo not shown) [4,9-Dihydroxy-N-methyl-3,5-dioxa-4-phosphatetetracosan-1-pyrrolidinium, 4-oxide, hydroxide, inner salt 3.5 hydrate]",62%
3,"CCCCCCCCCC(CCCOP(=O)([O-])OCC[N+](C)(C)C)OCc1ccccc1 (stereo not shown) [4-Hydroxy-N,N,N-trimethyl-9-phenylmethoxy-3,5-dioxa-4-phosphaoctadecan-1-aminium, 4-oxide, hydroxide, inner salt monohydrate]",83%
4,"CCCCCCCCCCCCCCCC(CCCOP(=O)([O-])OCC[N+](C)(C)C)OCc1ccccc1 (stereo not shown) [4-Hydroxy-N,N,N-trimethyl-9-phenylmethoxy.3,5-dioxa-4-phosphatetracosan-1-aminium, 4-oxide, hydroxide, inner salt monohydrate]",36%
